From PubChem BioAssay (NCI)
Several values for one entry are separate records, joined by “and”; a condition that tells them apart may be missing. Equal values may be shown once.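 Values below derive from 48-hour exposures of cells grown in 96-well plates, with endpoints linearly interpolated between the two concentrations bracketing the appropriate inhibition level. Here, GI50 denotes the concentration required for 50% inhibition of growth. Definition used: TGI = concentration required for complete inhibition of growth.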

Experiments:
Experiment in all cases: NCI tumour cell line growth inhibition, 48 h
DU-145 prostate = test system: DU-145 prostate
SF-268 CNS = test system: SF-268 CNS
OVCAR-4 ovarian = test system: OVCAR-4 ovarian
PC-3 prostate = test system: PC-3 prostate
MOLT-4 leukemia = test system: MOLT-4 leukemia
A498 renal = test system: A498 renal
OVCAR-3 ovarian = test system: OVCAR-3 ovarian
IGROV1 ovarian = test system: IGROV1 ovarian
HCC-2998 colon = test system: HCC-2998 colon
HOP-92 NSCLC = test system: HOP-92 NSCLC

Row | Structure (SMILES) | TGI (DU-145 prostate) | TGI (SF-268 CNS) | TGI (OVCAR-4 ovarian) | TGI (PC-3 prostate) | TGI (MOLT-4 leukemia) | TGI (A498 renal) | TGI (OVCAR-3 ovarian) | TGI (IGROV1 ovarian) | TGI (HCC-2998 colon) | TGI (HOP-92 NSCLC) | GI50 (DU-145 prostate) | GI50 (SF-268 CNS) | GI50 (OVCAR-4 ovarian) | GI50 (PC-3 prostate) | GI50 (MOLT-4 leukemia) | GI50 (IGROV1 ovarian)
1 | CC(=O)Oc1cccc2c1C(=O)CCCC2 | > 100 µM | > 100 µM | > 100 µM | > 100 µM | > 100 µM | > 100 µM | > 100 µM | > 100 µM | > 100 µM |  |  |  |  |  |  | 
2 | Nc1nccc(-c2c[nH]c3cc(Br)ccc23)n1 | > 100 µM | > 100 µM | > 100 µM | > 100 µM | 61.8 µM |  | > 100 µM | > 100 µM | 64.9 µM | 63.8 µM |  |  |  |  |  | 
3 | Cc1cccc(Cn2c3c(c4cc(O)ccc42)C(=O)c2ccccc2C3=O)c1 | > 100 µM | > 100 µM | 4.57 µM | 38.4 µM | > 100 µM | > 100 µM | > 31.6 µM | > 71 µM |  |  |  |  |  |  |  | 
4 | COc1ccc(C(=C2C=CC=C2)c2ccc(OC)cc2)cc1 | > 100 µM | > 100 µM | > 100 µM | > 100 µM | 40.3 µM |  | > 100 µM | > 100 µM | 42.6 µM | > 100 µM |  |  |  |  |  | 
5 | NS(=O)(=O)c1nnc(NC(=O)Nc2ccc(Cl)c(Cl)c2)s1 | > 100 µM | 67.5 µM | > 100 µM |  | 84.2 µM | 43.9 µM | > 100 µM |  | 34.8 µM | 42.3 µM |  |  |  |  |  | 
6 | O=C(/C=C/c1ccc2c(c1)OCO2)Cc1nc2ncccc2[nH]c1=O | > 100 µM | > 100 µM |  | > 100 µM | > 100 µM | > 100 µM | > 100 µM | > 100 µM | > 100 µM | > 100 µM |  |  |  |  |  | 
7 | Cc1ccc(N(Cc2ccccc2)Cc2ccccc2)cc1 | > 100 µM | > 100 µM | > 100 µM | > 100 µM | 79.3 µM | > 100 µM | > 100 µM | > 100 µM |  |  |  |  |  |  |  | 
8 | C=CC1(CC/C(=C\[N+](=O)[O-])c2ccc(OC)c(OC)c2)OCC(C)(C)CO1 | 33.1 µM | 39.1 µM | 31.5 µM | 57 µM | 6.05 µM |  | 39.8 µM |  | 46.2 µM | 54.8 µM |  |  |  |  |  | 
9 | CC1=C(Cl)C=CP(=O)(Oc2ccccc2)C1 (configuration not stated) |  | > 100 µM | > 100 µM |  | > 10 µM |  | > 100 µM | > 100 µM | > 100 µM | > 100 µM |  |  |  |  |  | 
10 | Oc1ccc2c(c1)c1c(n2CCN2CCOCC2)-c2ccccc2CC1 |  | > 100 µM |  | > 100 µM | > 100 µM | 52.6 µM | 49.5 µM | 57.6 µM |  |  |  |  |  |  |  | 
11 | Cc1cc(C)nc(NS(=O)(=O)c2ccc(NC(=O)c3ccc4nc5ccccc5c(Nc5ccc(S(N)(=O)=O)cc5)c4c3)cc2)n1 | > 100 µM | > 100 µM | > 100 µM | > 100 µM | > 100 µM |  | > 100 µM | > 100 µM | > 100 µM | > 100 µM |  |  |  |  |  | 
12 | Cc1ccc(NC(=O)CC2Sc3ccccc3NC2=O)cc1C (configuration not stated) |  | > 100 µM | > 100 µM |  | > 100 µM | > 100 µM | > 100 µM | > 100 µM | > 100 µM | 95.8 µM |  |  |  |  |  | 
13 | COc1cccc(Nc2nc(-c3cccs3)nc3cc(OC)c(OC)cc23)c1 | > 100 µM | > 100 µM | > 100 µM | 92.7 µM | > 100 µM | 48.5 µM | 51.1 µM | 69.3 µM |  | 51.9 µM |  |  |  |  |  | 
14 | COc1ncc(/C=C2\OC(=O)c3ccccc32)c(OC)n1 | > 100 µM | > 100 µM |  | > 100 µM | > 100 µM | > 100 µM | > 100 µM | > 100 µM | > 100 µM | > 100 µM |  |  |  |  |  | 
15 | O=C(OCc1ccccc1)N1CCNCCN(C(=O)OCc2ccccc2)CCNCC1 | > 100 µM |  | > 100 µM | > 100 µM | 50.4 µM | > 100 µM | > 100 µM | > 100 µM |  | > 100 µM |  |  |  |  |  | 
16 | COc1ccc2cc1Oc1ccc(cc1)C[C@H]1c3cc(c(OC)cc3CCN1C)Oc1c(O)c(OC)cc3c1[C@H](C2)N(C)CC3 |  | 150 µM | 58.1 µM |  | 26.4 µM | 50.4 µM | 46.8 µM | 65.8 µM | 24.7 µM | 26.9 µM |  |  |  |  |  | 
17 | Cc1ccc(-c2cc(-c3ccco3)c(C#N)c(=S)n2C2OC(CO)C(O)C(O)C2O)cc1 (configuration not stated) | > 100 µM | > 100 µM | 53.6 µM and > 100 µM | > 100 µM | > 100 µM | > 100 µM | 55.9 µM and 90.7 µM | 74.5 µM and > 100 µM | > 100 µM |  | 30.3 µM | 44.8 µM | 14.5 µM and > 100 µM | 17.4 µM and > 100 µM | 7.35 µM and 18.7 µM | 21.4 µM and 47.1 µM
18 | N=c1nnc2ccc(Cl)cc2n1O | > 100 µM | > 100 µM |  | > 100 µM | > 100 µM | > 100 µM |  | > 100 µM | > 100 µM |  |  |  |  |  |  | 

Row | Structure (SMILES) | TGI (DU-145 prostate) | TGI (SF-268 CNS) | TGI (OVCAR-4 ovarian) | TGI (PC-3 prostate) | TGI (MOLT-4 leukemia) | TGI (A498 renal) | TGI (OVCAR-3 ovarian) | TGI (IGROV1 ovarian) | TGI (HCC-2998 colon) | TGI (HOP-92 NSCLC) | GI50 (DU-145 prostate) | GI50 (SF-268 CNS) | GI50 (OVCAR-4 ovarian) | GI50 (PC-3 prostate) | GI50 (MOLT-4 leukemia) | GI50 (IGROV1 ovarian)
19 | CC1CN(C)c2ccccc2N=C1NN (configuration not stated) | > 100 µM | > 100 µM | > 100 µM | > 100 µM | > 100 µM | > 100 µM | > 100 µM | > 100 µM |  |  |  |  |  |  |  | 
20 | CC1(C)O[C@H]2OC(CO[Si](C)(C)C(C)(C)C)C(N=[N+]=[N-])[C@H]2O1 (some centres not stated) |  | 41.3 µM | 71.7 µM | 37 µM | 33.9 µM | 53 µM | 38.1 µM | 21.8 µM | 32.2 µM | 75.9 µM |  |  |  |  |  | 
21 | Cc1oc2c(cc(O)c3cc(O)ccc32)c2cccc1-2 | > 100 µM | > 100 µM |  | > 100 µM | > 100 µM | > 100 µM | > 100 µM | > 100 µM | > 100 µM | > 100 µM |  |  |  |  |  | 
22 | Nc1nc(-c2ccccc2)nc2oc(-c3cccs3)nc12 | > 100 µM | > 100 µM |  | > 100 µM | > 100 µM | > 100 µM | > 100 µM | > 100 µM | > 100 µM | > 100 µM |  |  |  |  |  | 
23 | COc1ccc(-n2c(C)nc3ccc(NC(=S)Nc4ccccc4)cc3c2=O)cc1 | > 100 µM | > 100 µM | > 100 µM | > 100 µM | 99.8 µM | > 100 µM | > 100 µM | > 100 µM | > 100 µM |  |  |  |  |  |  | 
24 | CCC(=O)NC(Nc1cc(C)on1)(C(F)(F)F)C(F)(F)F | > 100 µM | > 100 µM |  |  | > 100 µM | > 100 µM | > 100 µM | > 100 µM | > 100 µM | > 100 µM |  |  |  |  |  | 
25 | COc1ccc(/C=c2\sc3n(c2=O)CCN=3)cc1 |  |  | > 100 µM |  | > 100 µM |  | > 100 µM |  | > 100 µM | 95.8 µM |  |  |  |  |  | 
26 | Cc1ccnc(NS(=O)(=O)c2ccc(N=[N+]=[N-])cc2)n1 | > 100 µM | > 100 µM | > 100 µM | > 100 µM | > 60.4 µM | > 100 µM | > 100 µM | > 100 µM |  | > 100 µM |  |  |  |  |  | 
27 | Nc1nc(SCCC/C=C/I)nc2c1ncn2C1OC(COP(=O)(O)O)C(O)C1O (configuration not stated) |  | > 100 µM | > 100 µM |  | > 100 µM | > 100 µM | > 100 µM | > 100 µM | > 100 µM | > 100 µM |  |  |  |  |  | 
28 | COC(=O)[C@@H](O)[C@](O)(CCC(C)C)C(=O)O[C@@H]1C(OC)=C[C@]23CCCN2CCc2cc4c(cc2[C@H]13)OCO4 |  | 3.37 µM | 5.77 µM |  | 6.97 µM | 4.45 µM | 7.15 µM | 20 µM | 2.32 µM | 6.26 µM |  |  |  |  |  | 
29 | CCCCCCCC/C=C\CCCCCCCCCCCC(=O)O |  | > 125 µM | > 115 µM |  | 95.2 µM |  | 36.5 µM | > 125 µM | > 85.8 µM | 101 µM |  |  |  |  |  | 
30 | CCOC(=O)c1c(CN2CCCC2)n(-c2ccccc2)c2cc(Br)c(O)cc12 | 39.5 µM | 49.7 µM | 31.6 µM | 48.5 µM | 41.7 µM | 30.6 µM | 30.3 µM | 33.5 µM |  | 44 µM |  |  |  |  |  | 
31 | CC1(C(=O)O)CCC2(C)CCC3(C)C(=CC(=O)C4C5(C)CCC(O)C(C)(C)C5CCC43C)C2C1 (configuration not stated) | 77.3 µM | 67.4 µM | > 100 µM | > 100 µM | > 100 µM |  | 37.4 µM |  | 87.3 µM |  |  |  |  |  |  | 
32 | N#C/C(=C1/Sc2c(nc[nH]c2=O)N1c1ccccc1)c1nc2ccccc2[nH]1 |  | > 100 µM | > 100 µM |  | > 100 µM | > 100 µM | > 100 µM | > 100 µM | > 100 µM | > 100 µM |  |  |  |  |  | 
33 | O=c1[nH]c(=S)[nH]c2c1C(c1ccc([N+](=O)[O-])cc1)c1c([nH]c(=S)[nH]c1=O)O2 | > 100 µM |  | > 100 µM | > 100 µM | > 100 µM | > 100 µM | > 100 µM | > 100 µM |  | > 100 µM |  |  |  |  |  | 
34 | Nc1c(S(=O)(=O)O)cc2cc(S(=O)(=O)O)ccc2c1N=Nc1ccc(-c2ccc(N=Nc3c(N)c(S(=O)(=O)O)cc4cc(S(=O)(=O)O)ccc34)c(S(=O)(=O)O)c2)cc1 |  | > 100 µM | 74.7 µM |  | > 100 µM | > 100 µM | > 100 µM | > 100 µM | > 100 µM | > 100 µM |  |  |  |  |  | 
35 | O=C(N/N=C/c1ccc(Cl)cc1)c1c(Cl)c(Cl)c(Cl)c(Cl)c1-c1nc2ccccc2[nH]1 | > 100 µM | > 100 µM |  | > 100 µM | > 100 µM | > 100 µM | > 100 µM | > 100 µM | > 100 µM | > 100 µM |  |  |  |  |  | 
